Data from PubChem BioAssay (NCI).
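Method: 48-hour compound exposure of cells in 96-well plates, five concentrations, linear interpolation of endpoints. GI50 marks 50% less growth. TGI: concentration producing complete growth inhibition.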

Assays:
Experiment in all cases: NCI anticancer screen, dose series, 48 h
[1] = tested on: HT29 colon
[2] = tested on: SW-620 colon
[3] = tested on: HOP-62 NSCLC
[4] = tested on: HCT-15 colon
[5] = tested on: CCRF-CEM leukemia
[6] = tested on: HCC-2998 colon
[7] = tested on: A549 NSCLC
[8] = tested on: SK-MEL-2 melanoma
[9] = tested on: U251 CNS
[10] = tested on: HCT-116 colon
[11] = tested on: MCF7 breast
[12] = tested on: RPMI-8226 leukemia
[13] = tested on: T-47D breast
[14] = tested on: NCI-H23 lung
[15] = tested on: A498 renal
[16] = tested on: SK-MEL-5 melanoma
[17] = tested on: 786-0 renal
[18] = tested on: SR leukemia
[19] = tested on: UACC-62 melanoma
[20] = tested on: KM12 colon
[21] = tested on: SF-539 CNS
[22] = tested on: UO-31 renal
[23] = tested on: HOP-92 NSCLC
[24] = tested on: PC-3 prostate
[25] = tested on: ACHN renal
[26] = tested on: IGROV1 ovarian
[27] = tested on: BT-549 breast
[28] = tested on: RXF 393 renal
[29] = tested on: MDA-MB-435

CCN(CC)c1ccc(/C=N/NC(=O)c2ccccc2Nc2ccnc(C(F)(F)F)c2)c(O)c1
GI50 [1]: 362 nM
TGI [1]: > 100000 nM
GI50 [2]: 407 nM
TGI [2]: > 100000 nM
GI50 [3]: 121 nM
TGI [3]: 5350 nM
GI50 [4]: 45.7 nM
TGI [4]: > 100000 nM
GI50 [5]: 55 nM
TGI [5]: 1350 nM
GI50 [6]: 192 nM
TGI [6]: > 100000 nM
GI50 [7]: 235 nM
TGI [7]: > 100000 nM
GI50 [8]: 1290 nM
TGI [8]: 97900 nM
GI50 [9]: 103 nM
TGI [9]: > 44700 nM
GI50 [10]: 89.5 nM
TGI [10]: > 100000 nM
GI50 [11]: 248 nM
TGI [11]: > 100000 nM
GI50 [12]: 41.7 nM
TGI [12]: 601 nM
GI50 [13]: 471 nM
TGI [13]: > 100000 nM
GI50 [14]: 528 nM
TGI [14]: > 100000 nM
GI50 [15]: 354 nM
TGI [15]: > 32900 nM
GI50 [16]: 143 nM
TGI [16]: 723 nM
GI50 [17]: 183 nM
TGI [17]: 984 nM
GI50 [18]: 72.1 nM
TGI [18]: 728 nM
GI50 [19]: 206 nM
TGI [19]: 852 nM
GI50 [20]: 268 nM
TGI [20]: > 100000 nM
GI50 [21]: 248 nM
GI50 [22]: 112 nM
TGI [22]: 5760 nM
GI50 [23]: 428 nM
TGI [23]: > 100000 nM
GI50 [24]: 997 nM
TGI [24]: > 100000 nM
GI50 [25]: 83.4 nM
TGI [25]: > 24600 nM
GI50 [26]: 74.7 nM
TGI [26]: 71400 nM
GI50 [27]: 529 nM
TGI [27]: > 100000 nM
GI50 [28]: 226 nM
TGI [28]: > 24600 nM
GI50 [29]: 428 nM
TGI [29]: > 100000 nM
